Measured values: US10005773B2, “1-(4-pyrimidinyl)-1H-pyrrolo[3,2-c]pyridine derivatives as NIK inhibitors” (Janssen Pharmaceutica NV, priority 2013, dated 2018)

Experiments:
LP-1 cells = assay: Biological Assay C: antiproliferative activity on LP-1 cells (CellTiter-Glo); type: cell-based; conditions: Homo sapiens, 72 hr treatment
Protocol: (§1) Determination of Antiproliferative Activity on LP-1, L-363 and JJN-3 Cells
(§2) All compounds tested were dissolved in DMSO and further dilutions were made in culture medium. Final DMSO concentration was 0.3% (v/v) in cell proliferation assays. Viability was assessed using CellTiter-Glo cell viability assay kit (Promega). The human LP-1, L-363 and JJN-3 cells (DSMZ) were cultured in RPMI 1640 medium supplemented with 2 mM L-glutamine, and 10% fetal calf serum (PAA). Cells were routinely kept as suspension cells at 37° C. in a humidified 5% CO2 atmosphere. Cells were passaged at a seeding density of 0.2×10^6/ml twice a week. Cells were seeded in black tissue culture treated 96-well plates (Perkin Elmer). Densities used for plating ranged from 2,000 to 6,000 cells per well in a total volume of 75 μl medium. After twenty four hours, drugs and/or solvents were added (25 μl) to a final volume of 100 μl. Following 72 hr of treatment plates were removed from the incubator and allowed to equilibrate to room temperature for approx 10 min. 100 μl CellTiter-Glo reagent was added to each well that was then covered (Perkin Elmer Topseal) and shaken on plate shaker for 10 min. Luminescence was measured on a HTS Topcount (Perkin Elmer). Within an experiment, the results for each treatment were the mean of 2 replicate wells. For initial screening purposes, compounds were tested using a 9 point dilution curve (serial 1:3 dilutions). For each experiment, controls (containing no drug) and a blank incubation (containing cells read at the time of compound addition) were run in parallel. The blank value was subtracted from all control and sample values. For each sample, the mean value for cell growth (in relative light units) was expressed as a percentage of the mean value for cell growth of the control.

JJN-3 cells = assay: Biological Assay C: antiproliferative activity on JJN-3 cells (CellTiter-Glo); type: cell-based; conditions: Homo sapiens, 72 hr treatment
Protocol: as §1, §2

[1] = molecular target: T1, Recombinant Human NF-kappaB-Inducing Kinase (NIK/MAP3K14) (Homo sapiens, UniProt Q99558); assay: Biological Assay A: inhibition of recombinant human NIK/MAP3K14 activity (MSD, MBP substrate); conditions: 25 μM ATP, 10 nM NIK/MAP3K14, 1 h at 25° C.; averaged over all batches; read-out: Biochemical (MSD MBP) IC50
Protocol: Inhibition of Recombinant Human NF-kappaB-Inducing Kinase (NIKIMAP3K14) Activity
Assay buffer was 50 mM Tris pH 7.5 containing 1 mM ethylene glycol tetraacetic acid (EGTA), 1 mM dithiothreitol (DTT), 0.1 mM Na3VO4, 5 mM MgCl2, 0.01% Tween® 20. Assays were carried out in 384 well Mesoscale high binding plates which had been coated with myelin basic protein (MBP) and blocked with bovine serum albumin to prevent non-specific protein binding. All compounds tested were dissolved in dimethyl sulfoxide (DMSO) and further dilutions were made in assay buffer. Final DMSO concentration was 1% (v/v) in assays. Incubations consisted of compound (1% DMSO in control and blank wells), 25 μM Adenosine-5′-triphosphate (ATP), and 10 nM NIK/MAP3K14 substituting enzyme with buffer in the blank wells. Incubations were carried out for 1 h at 25° C. and were followed by washing and sequential incubation with rabbit anti-phospho-MBP and anti-rabbit Ig Sulfotag antibody before reading bound Sulfotag on a Mesoscale Discovery. Signal obtained in the wells containing blank samples was subtracted from all other wells and IC50's were determined by fitting a sigmoidal curve to % inhibition of control versus Log10 compound concentration.

[2] = test system: P-IKKα levels in L363 cells; assay: Biological Assay B: effect of compounds on P-IKKα levels in L363 cells; type: cell-based; conditions: Homo sapiens, L-363, BAFF stimulated, 2 hr treatment, averaged over all batches, read-out: IKKα Cellular IC50
Protocol: Effect of Compounds on P-IKKα Levels in L363 Cells
All compounds tested were dissolved in DMSO and further dilutions were made in culture medium. Final DMSO concentration was 1% (v/v) in cell assays. The human L363 cells (ATCC) were cultured in RPMI 1640 medium supplemented with GlutaMax and 10% fetal calf serum (PAA). Cells were routinely maintained at densities of 0.2×10^6 cells per ml-1×10^6 cells per ml at 37° C. in a humidified 5% CO2 atmosphere. Cells were passaged twice a week splitting back to obtain the low density. Cells were seeded in 96 well plates (Nunc 167008) at 2×10^6 per ml media in a volume of 75 μl per well plus 25 μl 1 μg/ml recombinant human B-cell activating factor (BAFF/BLyS/TNFSF13B). Seeded cells were incubated at 37° C. in a humidified 5% CO2 atmosphere for 24 hr. Drugs and/or solvents were added (20 μl) to a final volume of 120 μl. Following 2 hr treatment plates were removed from the incubator and cell lysis was achieved by the addition of 30 μl 5× lysis buffer followed by shaking on a plate shaker at 4° C. for 10 min. At the end of this incubation lysed cells were centrifuged at 800×g for 20 min at 4° C. and the lysate was assessed for P-IKKα levels by sandwich immuno-assay carried out in anti-rabbit antibody coated Mesoscale plates. Within an experiment, the results for each treatment were the mean of 2 replicate wells. For initial screening purposes, compounds were tested using an 8 point dilution curve (serial 1:3 dilutions). For each experiment, controls (containing MG132 and BAFF but no test drug) and a blank incubation (containing MG132 and BAFF and 10 μM ADS125117, a test concentration known to give full inhibition) were run in parallel. The blank incubation value was subtracted from all control and sample values. To determine the IC50 a sigmoidal curve was fitted to the plot of % inhibition of control P-IKKα levels versus Log10 compound concentration.

L-363 cells = assay: Biological Assay C: antiproliferative activity on L-363 cells (CellTiter-Glo); type: cell-based; conditions: Homo sapiens, 72 hr treatment
Protocol: as §1, §2

[3] = molecular target: T1, Recombinant Human NF-kappaB-Inducing Kinase (NIK/MAP3K14); assay: Biological Assay A2: inhibition of auto-phosphorylation of recombinant human NIK/MAP3K14 (AlphaScreen); type: biochemical; conditions: 25 microM ATP, 0.2 nM NIK/MAP3K14, 1 h at 25° C., averaged over all batches, read-out: Alpha-Screen IC50
Protocol: Inhibition of Auto-Phosphorylation of Recombinant Human NF-kappaB-Inducing Kinase (NIKIMAP3K14) Activity (AlphaScreen®)
NIK/MAP3K14 auto-phosphorylation activity was measured using the AlphaScreen® (ascreen) format (Perkin Elmer). All compounds tested were dissolved in dimethyl sulfoxide (DMSO) and further dilutions were made in assay buffer. Final DMSO concentration was 1% (v/v) in assays. Assay buffer was 50 mM Tris pH 7.5 containing 1 mM EGTA (ethylene glycol tetraacetic acid), 1 mM DTT (dithiothreitol), 0.1 mM Na3VO4, 5 mM MgCl2, 0.01% Tween® 20. Assays were carried out in 384 well Alphaplates (Perkin Elmer). Incubations consisted of compound, 25 microM Adenosine-5′-triphosphate (ATP), and 0.2 nM NIK/MAP3K14. Incubations were initiated by addition of GST-tagged NIK/MAP3K14 enzyme, carried out for 1 h at 25° C. and terminated by addition of stop buffer containing anti-phospho-IKK Ser176/180 antibody. Protein A Acceptor and Glutathione-Donor beads were added before reading using an EnVision® Multilabel Plate Reader (Perkin Elmer). Signal obtained in the wells containing blank samples was subtracted from all other wells and IC50's were determined by fitting a sigmoidal curve to % inhibition of control versus Log10 compound concentration.

T1 sequence (Q99558 whole entry): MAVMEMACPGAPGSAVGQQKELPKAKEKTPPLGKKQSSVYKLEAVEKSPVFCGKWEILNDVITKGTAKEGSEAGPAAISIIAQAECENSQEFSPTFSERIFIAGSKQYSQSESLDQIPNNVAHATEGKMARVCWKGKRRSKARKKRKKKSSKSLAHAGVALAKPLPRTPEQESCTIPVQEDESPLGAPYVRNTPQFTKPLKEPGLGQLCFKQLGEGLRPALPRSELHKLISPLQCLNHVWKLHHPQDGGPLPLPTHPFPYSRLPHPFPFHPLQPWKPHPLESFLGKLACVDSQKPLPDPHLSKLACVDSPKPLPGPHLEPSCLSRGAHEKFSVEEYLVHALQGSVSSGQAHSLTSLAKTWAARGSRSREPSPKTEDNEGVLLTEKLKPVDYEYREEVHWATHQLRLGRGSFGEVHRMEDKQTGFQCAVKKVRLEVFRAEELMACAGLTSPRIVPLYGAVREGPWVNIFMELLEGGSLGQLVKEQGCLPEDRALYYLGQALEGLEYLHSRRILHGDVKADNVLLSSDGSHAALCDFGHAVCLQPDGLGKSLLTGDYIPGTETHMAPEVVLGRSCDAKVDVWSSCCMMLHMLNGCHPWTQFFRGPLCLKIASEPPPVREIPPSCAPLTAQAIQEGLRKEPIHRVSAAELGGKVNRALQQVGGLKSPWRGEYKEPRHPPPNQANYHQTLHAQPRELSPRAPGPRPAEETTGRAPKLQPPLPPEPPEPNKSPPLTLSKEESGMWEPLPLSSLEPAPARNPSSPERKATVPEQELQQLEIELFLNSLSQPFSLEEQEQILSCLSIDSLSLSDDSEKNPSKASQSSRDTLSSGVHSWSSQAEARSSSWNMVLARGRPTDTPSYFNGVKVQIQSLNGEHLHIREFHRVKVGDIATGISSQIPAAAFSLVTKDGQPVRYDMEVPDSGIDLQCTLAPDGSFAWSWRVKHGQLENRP

## COCc1cn(-c2ccnc(N)n2)c2cc(C#CC(C)(C)O)ncc12 [Compound 18]
LP-1 cells
  EC50: 1.33 µM
JJN-3 cells
  EC50: 0.313 µM
[1]
  IC50: 0.022 µM
[2]
  IC50: 0.056 µM
L-363 cells
  EC50: 0.247 µM
[3]
  IC50: 0.02 µM

## CC(C)(O)C#Cc1cc2c(cn1)c(C#N)cn2-c1ccnc(N)n1 [Compound 19]
LP-1 cells
  EC50: 4.66 µM
JJN-3 cells
  EC50: 1.45 µM
[1]
  IC50: 0.098 µM
[2]
  IC50: 0.781 µM
L-363 cells
  EC50: 1.84 µM
[3]
  IC50: 0.054 µM

## CC(C)(O)C#Cc1cc2c(cn1)c(CC#N)cn2-c1ccnc(N)n1 [Compound 20]
LP-1 cells
  EC50: 1.28 µM
JJN-3 cells
  EC50: 0.19 µM
[1]
  IC50: 0.013 µM
[2]
  IC50: 0.055 µM
L-363 cells
  EC50: 0.319 µM
[3]
  IC50: 0.026 µM

## CCc1cn(-c2ccnc(N)n2)c2cc(C#CC(C)(C)O)ncc12 [Compound 21]
LP-1 cells
  EC50: 0.07 µM
JJN-3 cells
  EC50: 0.041 µM
[1]
  IC50: 0.011 µM
[2]
  IC50: 0.0095 µM
L-363 cells
  EC50: 0.044 µM
[3]
  IC50: 0.015 µM

## CC(C)c1cn(-c2ccnc(N)n2)c2cc(C#CC(C)(C)O)ncc12 [Compound 22]
LP-1 cells
  EC50: 0.131 µM
JJN-3 cells
  EC50: 0.049 µM
[1]
  IC50: 0.0065 µM
[2]
  IC50: 0.016 µM
L-363 cells
  EC50: 0.047 µM
[3]
  IC50: 0.016 µM

## CN1CCC(c2cn(-c3ccnc(N)n3)c3cc(C#CC(C)(C)O)ncc23)CC1 [Compound 23]
LP-1 cells
  EC50: 1.92 µM
JJN-3 cells
  EC50: 0.116 µM
[1]
  IC50: 0.033 µM
[2]
  IC50: 0.087 µM
L-363 cells
  EC50: 0.092 µM
[3]
  IC50: 0.035 µM

## CN1CCC(c2cn(-c3ccnc(N)n3)c3cc(C#CC4(O)CCCC4)ncc23)CC1 [Compound 24]
LP-1 cells
  EC50: 4.24 µM
JJN-3 cells
  EC50: 0.779 µM
[1]
  IC50: 0.04 µM
[2]
  IC50: 0.183 µM
L-363 cells
  EC50: 0.512 µM
[3]
  IC50: 0.037 µM

## CN1CCC(c2cn(-c3nc(N)ncc3F)c3cc(C#CC(C)(C)O)ncc23)CC1 [Compound 25]
LP-1 cells
  EC50: 1.04 µM
JJN-3 cells
  EC50: 0.13 µM
[1]
  IC50: 0.103 µM
[2]
  IC50: 0.075 µM
L-363 cells
  EC50: 0.105 µM
[3]
  IC50: 0.095 µM

## CC(C)(O)C#Cc1cc2c(cn1)c(CCO)cn2-c1ccnc(N)n1 [Compound 26]
LP-1 cells
  EC50: 6.94 µM
JJN-3 cells
  EC50: 0.182 µM
[1]
  IC50: 0.0038 µM
[2]
  IC50: 0.041 µM
L-363 cells
  EC50: 0.823 µM
[3]
  IC50: 0.011 µM

## COCCc1cn(-c2ccnc(N)n2)c2cc(C#CC(C)(C)O)ncc12 [Compound 27]
LP-1 cells
  EC50: 0.448 µM
JJN-3 cells
  EC50: 0.145 µM
[1]
  IC50: 0.031 µM
[2]
  IC50: 0.048 µM
L-363 cells
  EC50: 0.194 µM
[3]
  IC50: 0.033 µM

## CC(C)(O)C#Cc1cc2c(cn1)c(CCCO)cn2-c1ccnc(N)n1 [Compound 28]
LP-1 cells
  EC50: 4.44 µM
JJN-3 cells
  EC50: 0.162 µM
[1]
  IC50: 0.0039 µM
[2]
  IC50: 0.028 µM
L-363 cells
  EC50: 0.215 µM
[3]
  IC50: 0.0055 µM

## CC(C)(O)C#Cc1cc2c(cn1)c(CCCO)cn2-c1nc(N)ncc1F [Compound 29]
LP-1 cells
  EC50: 3.48 µM
JJN-3 cells
  EC50: 0.298 µM
[1]
  IC50: 0.019 µM
[2]
  IC50: 0.032 µM
L-363 cells
  EC50: 0.277 µM
[3]
  IC50: 0.024 µM
